In patent publication US20170166870A1, “HUMAN HEPATIC 3D CO-CULTURE MODEL AND USES THEREOF” (Vrije Universiteit Brussel, priority 2014, published 2017):
Like-named read-outs stand apart in the source and are kept apart here.

How the values were obtained:
3D HepaRG/HSC co-culture [1] = assay: Single and repeated exposure, procollagen in culture supernatant; type: cell-based, human; conditions: repeated exposure, day 14; not observed at day 21
Text: (§1) FIG. 10: APAP and reference fibrotic compounds in single- and repeated-exposure of the 3D HepaRG/HSC co-culture. (A, C and E) cell viability, represented by % ATP and (B, D and F) gene expression. Error bars represent the standard deviation between independent assays (N=2) each point represents the pool of 5-6 spheroids. (D, F) Graph inserts represent the second repeat of the assay. Due to the variation between assays values could not be averaged together. Each point represents the pool of 5-6 spheroids. (G-H) Fibrosis read-outs at the protein level. (G) Procollagen measurements in culture supernatant upon single and repeated compound exposure (day 14 and 21) to 3D HepaRG/HSCs. (H) Procollagen measurements in culture supernatant upon 24 h incubation with the reference pro-fibrotic compounds of 3D HepaRG and 3D HSCmono-cultures.
(§2) Samples for pro-collagen measurement were five times concentrated using 10 kD Vivaspin 500 ultrafiltration columns (VWR, Radnor, Pa.), the resulting supernatant was analysed for the presence of Type I C-Peptide using the TAKARA (Chanteloup-en-Brie, France) kit.
(§3) Single and repeated exposure. For the single and repeated compound exposure cell spheroids (3D HepaRG/HSC, 3D HepaRG and 3D HSC) were exposed respectively on day 20 for 24 h or every second day from day 8 to day 21 in serum-free medium with no additional solvent. […]

3D HepaRG/HSC co-culture [2] = assay: Single and repeated exposure, gene expression of HSC activation markers; type: cell-based, human; conditions: for HSC activation (up-regulation of activation markers, mRNA): serum-free medium
Protocol: (§4) Single and repeated exposure. For the single and repeated compound exposure cell spheroids (3D HepaRG/HSC, 3D HepaRG and 3D HSC) were exposed respectively on day 20 for 24 h or every second day from day 8 to day 21 in serum-free medium with no additional solvent. Cells were exposed to a range of 8 concentrations between 0.5 and 80 mM for APAP single-dose, 0.125 and 40 mM for APAP repeated-dose, 0.3 and 500 μM Allyl Alcohol (AA, Sigma-Aldrich), 1.9 and 1000 μM Methotrexate (MTX, Pfizer, NY, USA). For the recovery assay, on day 21, cells were washed using serum-free medium and kept for 3 extra days.
For the cell culture samples, total RNA from 4-6 pooled spheroids was extracted from cells using the RNeasy Micro Kit (Qiagen, Venlo, Limburg, Netherlands). In the mouse assays, sorted HSC from different mice were lysed separately. Total RNA from tissue cultured cells was extracted using ReliaPrep RNA Cell Miniprep System (Promega).
Reverse-transcription using the Revert Aid Kit (ThermoFisher Scientific, Waltham, Massachusetts, USA) allowed conversion of RNA to cDNA. The RT reaction was performed at 25° C. for ten minutes followed by 30 minutes at 50° C. For quantitative real-time polymerase chain reaction (qPCR), GoTaq QPCR Master Mix with BRYTE green (Promega) was used, subjected to qPCR in a 7500 real time PCR system and analysed using System SDS software v2.0.5 (Applied Biosystems, Waltham, Mass., USA), using GAPDH for normalisation. Reliability of GAPDH as house-keeping gene was determined using Normfinder (Anderson et al., 2004). Fold change differences between samples were determined using the comparative Ct (δδCt) method. The expression level of different targets, relative to GAPDH (δCt) and relative to the calibrator, was given by 2^−δδCt.

3D HepaRG/HSC co-culture [3] = assay: Single and repeated exposure, cell viability (% ATP), serum-free medium; type: cell-based, human
Protocol: Culture medium. Day 0 cells were resuspended in HepaRG thawing medium and from day 1 to 21 cells were kept in the HepaRG culture medium 0% DMSO, until day 8. For the repeated versus single compound exposure assays, on day 8, the HepaRG culture medium 0% DMSO was replaced by the Serum-free HepaRG maintenance medium described in Klein et. al. 2013 (HepaRG Induction/Toxicity medium, DMSO 0.5% (v/v), 2 μg/ml of epidermal growth factor and 10 μg/ml of hepatocyte growth factor) and kept in this medium until the end of culture.
as §4
Cell viability assay was performed by measuring ATP production upon individual spheroid exposure to the different concentrations of the test compound. Cell spheroids were lysed individually for viability analysis using the Cell titer Glo kit (Promega) following the instructions of the manufacturer. Luminescence values were converted into percentage of ATP by comparison with controls and converted into dose-response curves using Prism 5 software.

[4] = tested on: 3D HepaRG and 3D HSC mono-cultures; assay: Procollagen in culture supernatant of mono-cultures, reference pro-fibrotic compounds; type: cell-based, human; conditions: 3D mono-cultures, 24 h incubation
Text: as §1, §2, §3

3D HepaRG/HSC co-culture [5] = assay: APAP toxicity assay, cell viability by ATP (Cell titer Glo); type: cell-based, human; conditions: 2.5 mM VPA with APAP
Protocol: APAP toxicity assay was performed in 3D HepaRG/co-culture as well as in 3D HepaRG monoculture. […] For some experiments the culture medium was supplemented with 2.5 mM valproic acid (VPA sodium salt, Sigma-Aldrich) or with cytokine mixture (Raicevic et al.,2012)-interleukin (IL)-1β 25 ng/mL (Peprotech, Rocky Hill, N.J., USA), interferon (IFN)-γ 10^3 U/mL, tumor necrosis factor (TNF)-a 50 ng/mL, and IFN-α 3·10^3 U/mL (all from Prospec, Inc., East Brunswick, N.J., USA). For the recovery assay, at the end of APAP incubation, cells were washed using HepaRG culture 0% DMSO medium and kept in the same medium for 3 more days.
(§5) At the end of the incubation period, 5 spheroids per condition were pooled and lysed for RNA analyses, while the remaining spheroids per condition were lysed individually for viability analysis using the Cell titer Glo kit (Promega) for ATP measurements following the instructions of the manufacturer.

3D HepaRG/HSC co-culture [6] = assay: mRNA expression of HSC activation markers (qPCR) after APAP incubation; type: cell-based, human; conditions: 2.5 mM VPA, highest APAP concentrations
Protocol: APAP toxicity assay was performed in 3D HepaRG/co-culture as well as in 3D HepaRG monoculture. For 24 h, starting at day 20, cells were exposed to a range of APAP concentrations between 0.5 and 80 mM, keeping cells with the solvent (0.1% DMSO) as a control. For some experiments the culture medium was supplemented with 2.5 mM valproic acid (VPA sodium salt, Sigma-Aldrich) or with cytokine mixture (Raicevic et al.,2012)-interleukin (IL)-1β 25 ng/mL (Peprotech, Rocky Hill, N.J., USA), interferon (IFN)-γ 10^3 U/mL, tumor necrosis factor (TNF)-a 50 ng/mL, and IFN-α 3·10^3 U/mL (all from Prospec, Inc., East Brunswick, N.J., USA). For the recovery assay, at the end of APAP incubation, cells were washed using HepaRG culture 0% DMSO medium and kept in the same medium for 3 more days.
as §5
(§6) Total RNA was extracted from cells using the ReliaPrep RNA Cell Miniprep System (Promega, Madison, Wis.). Reverse-transcription using the Revert Aid Kit (ThermoFisher Scientific, St. Leon-Rot, Germany) allowed conversion of RNA to cDNA. The RT reaction was performed at 25° C. for ten minutes followed by 30 minutes at 50° C. For quantitative real-time polymerase chain reaction (qPCR), GoTaq QPCR Master Mix with BRYTE green (Promega, Madison, Wis.) was used, subjected to qPCR in a 7500 real time PCR system and analysed using System SDS software v2.0.5 (Applied Biosystems), using GAPDH for normalisation.

[7] = tested on: 3D mouse hepatocyte/HSC co-culture (1Hep:2HSC); assay: LPS stimulation of 3D mouse hepatic co-cultures, aSMA and Col1a1 expression; type: cell-based; conditions: 6 days LPS treatment, day 9; 1Hep:2HSC ratio
Text: FIG. 1: Screen of hepatocyte:hepatic stellate cell ratios in 3D mouse cultures. Figure represents the HSC activation markers (A, B) and Hepatocyte markers (C) measured in the different 3D mouse hepatic co-cultures. A—basal gene expression of fibrotic markers (aSMA and Col1a1) on day 9 of culture. B—Fold increase of aSMA and Col1a1 on day 9 upon 6 days treatment with the pro-fibrotic factor LPS. Horizontal line corresponds to non-treated 3D co-cultures for each case. C—over-time gene expression of albumin (a) and CYP3A11 (b) in the 3D co-cultures where better results were obtained previously (2hep:1HSC and 1Hep:2HSC). Comparisons between groups were analyzed for statistical significance by one-way ANOVA followed by Tukey. *** p<0.001; ** p<0.01; * p<0.05. […]
Total RNA was extracted from cells using the ReliaPrep RNA Cell Miniprep System (Promega, Madison, Wis.). […] For quantitative real-time polymerase chain reaction (qPCR), GoTaq QPCR Master Mix with BRYTE green (Promega, Madison, Wis.) was used, subjected to qPCR in a 7500 real time PCR system and analysed using System SDS software v2.0.5 (Applied Biosystems), using GAPDH for normalisation. Reliability of GAPDH as house-keeping gene was determined using Normfinder (Andersen, Jensen et al. 2004) to produce the ΔCT values. […]

3D HepaRG/HSC co-culture [8] = assay: Exposure to pro-fibrotic factors, gene expression; type: cell-based, human
Protocol: From day 14 to day 21, 3D HepaRG/HSC spheroids were exposed to a solution of 100 ng/ml Lipopolysaccharide (LPS, Sigma) in culture medium, refreshed every second day up to day 21. Incubation with the Transforming growth factor-β1 (TGF-β1, R&D systems inc., Minneapolis, Minn., USA) was performed on day 19 for 48 h at a concentration of 10 ng/ml in HepaRG Induction/Toxicity medium. On day 21, cells were lysed and gene expression was analyzed upon RNA extraction.
as §6

C=CCO [Allyl Alcohol]
collagen secretion (3D HepaRG/HSC co-culture [1]): high collagen secretion at day 14
HSC activation (up-regulation of activation markers, mRNA) (3D HepaRG/HSC co-culture [2]; repeated exposure): increase of the HSC activation markers at mRNA levels
HSC activation (up-regulation of activation markers, mRNA) (3D HepaRG/HSC co-culture [2]; single exposure 24 h): increase of the HSC activation markers at mRNA levels
cell viability dose-response (3D HepaRG/HSC co-culture [3]; repeated exposure): disappeared upon repeated exposure
cell viability (3D HepaRG/HSC co-culture [3]; single exposure): dose-response observed at the single exposure
collagen secretion [4]: no collagen secretion is detected

CN(Cc1cnc2nc(N)nc(N)c2n1)c1ccc(C(=O)N[C@@H](CCC(=O)O)C(=O)O)cc1 [MTX, Methotrexate]
collagen secretion (3D HepaRG/HSC co-culture [1]): high collagen secretion at day 14
recovery of HSC 3 days after compound washout (3D HepaRG/HSC co-culture [2]; repeated exposure 63 μM): observed
HSC activation (up-regulation of activation markers, mRNA) (3D HepaRG/HSC co-culture [2]; repeated exposure): dramatically compensated
HSC activation (up-regulation of activation markers, mRNA) (3D HepaRG/HSC co-culture [2]; single exposure 24 h): no longer observed
cell viability (3D HepaRG/HSC co-culture [3]): does not seem to affect cell viability at any of the tested concentrations
percentage of ATP production (3D HepaRG/HSC co-culture [3]; repeated exposure, lowest concentration): less than 20%
collagen secretion [4]: no collagen secretion is detected

CCCC(CCC)C(=O)O [VPA, valproic acid]
effect on APAP toxicity (cell viability) (3D HepaRG/HSC co-culture [5]): did not affect APAP toxicity
effect on APAP-induced HSC markers (3D HepaRG/HSC co-culture [6]): lower up-regulation of the HSC markers

Lipopolysaccharide [LPS]
activation response (aSMA, Col1a1) [7]: increased aSMA and Col1a1
survivor markers (IL6, MMP1, CCL2, TNFα, IL1β) expression (3D HepaRG/HSC co-culture [8]; 100 ng/ml LPS, 6 days): induced an up-regulation of the survivor markers

TGFβ: Transforming growth factor-β1, known pro-fibrogenic factor
activation markers (Acta2, Col1a1, Col3a1, Loxl2) expression (3D HepaRG/HSC co-culture [8]; 10 ng/ml TGFβ, 48 h, day 21): acted on the activation markers
